Columns and labels:
Format in all cases: cell-based, human
MDA-MB-436 cells = experiment: Synergy viability assay, MDA-MB-436
Source text: (§1) In ARID1A-deficient tumors, ATR inhibition is thought to trigger premature mitotic entry and chromosome instability that cannot be resolved, resulting in mitotic catastrophe^27. […] We sought to assess whether generic BAF inhibition might sensitize a host of cancers to ATR inhibition. We tested the efficacy of BAFi and ATRi on nine additional human cancer cell lines including seven Breast cancer cell lines (HCC1143, HCC1954, HCC1187, MDAMB-468, MDA-MB-436, Cal-51, MCF-7) and two renal clear cell carcinoma cell lines (A-704, and ACHN). Cal-51 and MCF-7 are both considered aggressive, highly mutated breast cancer cell lines with numerous COSMIC Census gene mutations (FIG. 10). HCC1143 and MDA-MB-468 are sporadic basal-likecancers, HCC1187 is a triple-negative breast cancer, and HCC1954 and MDA-MB-436 are BRCA1 mutant breast cancers which harbor single driver mutations. To assess synergy, each cell line was treated with 5 doses of VE-821 (1.25 uM-20 uM) and 5 doses of Baficillin1 (1.25 uM-20 uM), both independently and with all possible combinations. Like HCT-116 cells, Baficillin1 sensitized MCF-7 and Cal-51 cells lines to treatment with VE-821 (FIG. 6a).
(§2) Viability assays were performed in 384-well plates. Cells were plated at 500 cells/well. […] After 5 days, cellular viability was measured using CellTitre blue, as described by the manufacturer.

[1] = tested on: HCT116 cells infected with shRNA lentivirus targeting ARID2; experiment: Synergy viability assay, HCT116 with shARID2 knockdown; conditions: with VE-821, 5 days
Source text: SMARCA4, the primary target of our original screen, is present in both human BAF and PBAF complexes in cancer^12. PBAF complexes differ from BAF complexes by incorporation of specific subunits. Specifically, PBAF complexes contain ARID2 (as opposed to ARID1A/B), PHF10 (BAF45a) (as opposed to […] (BAF45d)), PBRM1, and lack the BAF-specific subunit SS18. PBAF specific subunits are also frequently mutated in cancer, specifically renal clear cell carcinomas and cholangiocarcinomas^33-36. To assess whether the lead compound is targeting BAF, PBAF complexes, or both, we constitutively knocked down ARID1A or ARID2 by lentiviral transduction of HCT116 cells and compared the BAFi/ATRi synergy to the wild-type (ARID1A+/+). […] Further, upon knockdown of ARID1A or ARID2 (FIG. 3b), the synergistic effect observed between Baficillin1 and VE-821 was ablated upon loss of ARID1A (FIG. 3e) (CIshARID1A=1.48±0.14), but not loss of shARID2 (CIshARID2=0.42±0.04) (FIG. 3c-e).
Viability assays were performed in 384-well plates. Cells were plated at 500 cells/well. Each drug was administered in 5-doses with 4 replicates per plate, and each 5×5 drug combination was administered with 8 replicates per plate, 24 hours after seeding. […] After 5 days, cellular viability was measured using CellTitre blue, as described by the manufacturer. […]

[2] = tested on: ACHN renal clear cell carcinoma cell line; experiment: Synergy viability assay, ACHN; conditions: with VE-821, PBRM1 mutant line
Source text: as §1, §2

MCF-7 cells = experiment: Synergy viability assay, MCF-7; conditions: with VE-821 (1.25-20 uM each)
Source text: as §1, §2

HCT116 cells = experiment: Synergy viability assay (CellTitre blue, 5 days), HCT116 ARID1A(+/+)
Procedure: To assess drug synergy, the Chou-Talalay method was employed to provide a mechanism-independent method to quantify the synergism of drug interactions. This method combines elements of the Scatchard, Michaelis-menten, Hill, and Henderson-Hasslebalch equations through the law of mass-action^31,32 to generate a quantifiable assessment of synergy. Molecules were tested both independently and then in 25 different combinations in HCT116 cells for 5 days as described above. To determine a combination index (CI), median-effect equations of the two respective molecules were determined from their respective dose responses. The median-effect equation was used to calculate a median-effect dose, and (Dx)ATRi,BAFi values which correspond for the respective doses of the BAFi and ATRi compounds and correlate with a given percentage of cells affected by the individual treatments. Normalized index values (IATRi, IBAFi), and the combination index are a ratio between the treatment dose, and the Dx for a given fraction of affected cells. Combination indices less than 0.9 are considered synergistic, while values ranging from 0.9 to 1.1 are additive, and CIs above 1.1 are antagonistic.
Viability assays were performed in 384-well plates. Cells were plated at 500 cells/well. Each drug was administered in 5-doses with 4 replicates per plate, and each 5×5 drug combination was administered with 8 replicates per plate, 24 hours after seeding. All error bars represent 4 or 8 technical replicates averaged over 3 independent experiments. Media containing fresh drug was replaced every 48 hours. After 5 days, cellular viability was measured using CellTitre blue, as described by the manufacturer.

SMILES: CO[C@H]1CN(C)C(=O)c2cc(NC(=O)NC(C)C)ccc2OC[C@H](C)N(Cc2ccc(-c3ccccn3)cc2)C[C@@H]1C [Baficillin1]
- sensitivity to Baficillin1 independently (MDA-MB-436 cells; single agent, BRCA1 mutant line): significantly more sensitive
- combinatorial effects of BAFi/ATRi (MDA-MB-436 cells; with VE-821): strictly additive
- combination index (CI shARID2) [1]: 0.42±0.04
- combinatorial effects of BAFi/ATRi [2]: antagonism
- combination index (CI MCF-7) (MCF-7 cells): 0.45±0.04
- dose reduction index (HCT116 cells; combination of VE-821 and Baficillin1, higher concentrations): > 100 fold
- dose reduction index (HCT116 cells; combination of VE-821 and Baficillin1, low concentrations): over 10 fold
- average combination index (CI) (HCT116 cells; with VE-821 (1.25-20 uM each, 25 combinations), 5 days, Chou-Talalay): 0.53±0.05
